Source: PMC8259857, “Anti-tubercular activity and molecular docking studies of indolizine derivatives targeting mycobacterial InhA enzyme” (Journal of Enzyme Inhibition and Medicinal Chemistry, 2021)
Converted amounts (≈) assume the structure as drawn.

Assays:
[1] = tested on: susceptible H37Rv MTB strain (ATCC 25177); assay: Resazurin Microplate Assay (REMA), whole-cell anti-tubercular activity against H37Rv; assay type: cell-based, Mycobacterium tuberculosis; conditions: for MIC: Mycobacterium tuberculosis, read-out: MIC H37Rv; for MIC H37Rv: H37Rv ATCC 25177, NA: not active at the concentration range (0.2–64 μg/mL)

## CCOC(=O)c1cc(C(=O)c2ccc(Cl)cc2)n2ccccc12 [Compound 2b]
[1]
  MIC: 8 µg/mL (≈ 24.4 µM)

## CCOC(=O)c1cc(C(=O)c2ccc(Br)cc2)n2ccccc12 [Compound 2c]
[1]
  MIC: 32 µg/mL (≈ 86 µM)

## CCOC(=O)c1cc(C(=O)c2ccc([N+](=O)[O-])cc2)n2ccccc12 [Compound 2d]
[1]
  MIC: 8 µg/mL (≈ 23.6 µM)

## CCOC(=O)c1cc(C(=O)c2ccc(C)cc2)n2ccccc12 [Compound 2e]
[1]
  MIC H37Rv: completely abolished the activity

## CCOC(=O)c1cc(C(=O)c2ccc(C#N)cc2)n2ccccc12 [Compound 2f]
[1]
  MIC H37Rv: completely abolished the activity

## CCOC(=O)c1c(C)c(C(=O)c2ccc(F)cc2)n2ccccc12 [Compound 3a]
[1]
  MIC: 4 µg/mL (≈ 12.3 µM)

## CCOC(=O)c1c(C)c(C(=O)c2ccc(Cl)cc2)n2ccccc12 [Compound 3b]
[1]
  MIC: 32 µg/mL (≈ 93.6 µM)

## CCOC(=O)c1c(C)c(C(=O)c2ccc([N+](=O)[O-])cc2)n2ccccc12 [Compound 3d]
[1]
  MIC: 8 µg/mL (≈ 22.7 µM)

## CCOC(=O)c1c(C(=O)OCC)c2ccccn2c1C(=O)c1ccc(F)cc1 [Compound 4a, Diethyl-3-(4-fluorobenzoyl)indolizine-1,2-dicarboxylate]
other
  melting point: 138 to 139 °C
[1]
  MIC: 8 µg/mL (≈ 20.9 µM)

## CCOC(=O)c1c(C(=O)OCC)c2ccccn2c1C(=O)c1ccc(Cl)cc1 [Compound 4b, Diethyl-3-(4-chlorobenzoyl)indolizine-1,2-dicarboxylate]
other
  melting point: 137 to 138 °C
[1]
  MIC: 8 µg/mL (≈ 20 µM)

## CCOC(=O)c1c(C(=O)OCC)c2ccccn2c1C(=O)c1ccc([N+](=O)[O-])cc1 [Compound 4c, Diethyl-3-(4-nitrobenzoyl)indolizine-1,2-dicarboxylate]
other
  melting point: 111 to 112 °C
[1]
  MIC: 32 µg/mL (≈ 78 µM)

## NNC(=O)c1ccncc1 [Isoniazid, reference compound]
[1]
  MIC: < 0.2 µg/mL

## CO[C@H]1/C=C/O[C@@]2(C)Oc3c(C)c(O)c4c(O)c(c(/C=N/N5CCN(C)CC5)c(O)c4c3C2=O)NC(=O)/C(C)=C\C=C\[C@H](C)[C@H](O)[C@@H](C)[C@@H](O)[C@@H](C)[C@H](OC(C)=O)[C@@H]1C [Rifampicin, reference compound]
[1]
  MIC: < 1 µg/mL
